The source of these data is PMC5342071, “A first generation inhibitor of human Greatwall kinase, enabled by structural and functional characterisation of a minimal kinase domain construct” (Oncotarget, 2016).

Holding throughout (type): biochemical
For experiment [1], the target named is T1, hGWL-KinDom (Homo sapiens, UniProt Q96GX5).
T1 construct: that encoded amino acids (aa) 1-194 + ‘RTFC’ + 740-879 of hGWL; GST (rhinovirus 3C-protease cleavable) (N, cleaved yes); made in house; host or cells: E. coli Rosetta2(DE3)
The experiment in a line: Inhibitor screen of pooled library with hGWL-KinDom (Kinase-Glo Max). The note with it: for inhibition at 10 µM: 10 μM screening concentration, ATP concentration = 45 μM; for Rank in inhibitor screen: rank by potency in the screen. As to the method: Two small-molecule compound libraries, enriched with pharmacophores known to interact with the ATP-binding site of protein kinases, were screened as a pooled library in a Kinase-GloMax luminescence-kinase assay. page 4: […] Dynabeads [Sigma-Aldrich] overnight at 4 °C. After sequential washes with IP buffer, 1:1 mix of IP and kinase assay buffers and a final wash in kinase assay buffer, the beads were then used in the kinase assay. The reaction was stopped by adding SDS loading buffer and analysed by western blot: p-ENSA and GWL levels were detected using the anti-phospho([…] and […], Prestige) antibodies. Activity was measured as the […] ratio and % kinase activity was normalised to the DMSO control. All kinases assays were repeated thrice per assay condition and each point on the concentration-dependent response curves represents the mean ± 1 S.D. PKA, ROCK1 and CDK2 kinase assays PKA and ROCK1 assays (Promega) were carried out according to the manufacturer's protocols and CDK2 assays were carried out with Histone H1 as substrate (1 µg per 20 µl reaction) according to our Kinase-Glo Max assay. CDK2 was expressed and purified from E. coli as previously described (10). Inhibitor Screens with hGWL-KinDom Two small-molecule compound libraries, enriched with pharmacophores known to interact with the ATP- binding site of protein kinases, were kindly provided by GlaxoSmithKline and Roche. We used this pooled library (582 compounds, 10 µM screening concentrations) in a Kinase-Glo Max luminescence kinase assay (11, 12) as part of a two-point screen against hGWL-KinDom kinase activity, using ATP at fixed concentrations of […] With STU as positive control at a […] 4A,B). […] rate = 5.8%; Supplementary Figure 4A). Molecular Docking - AutoDock AT13148 and GKI-1/2 were docked into the ATP-binding site of the hGWL-KinDom crystal structure (where the disordered C-helix was homology-modelled) using AutoDock 4.2.6. PDB format files for the ligand and kinase domain were pre-processed using AutoDock Tools 1.5.6 as described in Mohamed, et al. (13). (Figure 4 and Supplementary Figure 6A,B). Immunofluorescence and Time-lapse video microscopy 2.5 X 105 HeLa cells were plated onto glass coverslips in a 6-well plate, or 4-well µ-slides [Ibidi GmbH] were seeded with 5 X 104 cells and then transfected with Qiagen AllStars negative control or Hs_MASTL_6 siRNAs (14) using Lipofectamine RNAiMax [ThermoFisher Scientific]. Media was exchanged with fresh media the next day. 48 hours after siRNA treatment, only cells to be used for immunofluorescence (IF) were treated with nocodazole (200 ng/mL) and DMSO or GKI-1 at the indicated concentration. For IF, cells were fixed, stained with primary mouse anti-GWL and rabbit anti-p-ENSA antibodies, secondary Alexa Fluor 647-conjugated anti- rabbit and Alexa Fluor 488-conjugated anti-mouse antibodies, DAPI and mounted onto glass microscope slides using Diamond Antifade Mountant [Molecular Probes, ThermoFisher Scientific]. Quantitation of IF images was performed using the […]-Content Screening Station [Olympus Life Science] which acquired 220, 40x images per cover slip. Data were normalised against the AllStars negative control siRNA treated cells and values obtained from three biological replicates were reported as the mean ± 1 S.D. To assist with selecting mitotic cells, ScanR imaging software was utilised to gate for mitotic cells using the circularity factor and total DAPI parameters. To produce time-lapse videos, after 48 hours and cell treatment with DMSO or compound (cells were treated with GKI-1 for 4-h before image acquisition) cells plated in 4-well µ-slides were imaged every 5 minutes for 8.5 hours on an Olympus IX73 microscope, using a 40 x 0.95NA air objective, and recorded on an Orca-Flash 4.0 CMOS camera [Hamatsu]. The computer program Fiji (http://www.fiji.sc/Fiji) was used to generate videos from image sequence TIF files. Data were normalised against the AllStars negative control siRNA treated cells and […]

Experiment [2] concerns the target T2, PKA (Homo sapiens, UniProt P17612).
T2 construct: purchased Promega
Kind of experiment: PKA kinase assay (Promega). The note with it: for IC50: ± S.D. As to the method:
(§1) hGWLFL, 100 µl of lysate was diluted 5-fold with IP buffer and combined with 3 µl anti-Flag M2 magnetic Dynabeads [Sigma-Aldrich] overnight at 4 °C. After sequential washes with IP buffer, 1:1 mix of IP and kinase assay buffers and a final wash in kinase assay buffer, the beads were then used in the kinase assay. The reaction was stopped by adding SDS loading buffer and analysed by western blot: p-ENSA and GWL levels were detected using the anti-phospho(Ser67)-ENSA and anti-MASTL(GWL, Prestige) antibodies. Activity was measured as the p-ENSA/GWL ratio and % kinase activity was normalised to the DMSO control. All kinases assays were repeated thrice per assay condition and each point on the concentration-dependent response curves represents the mean ± 1 S.D.
(§2) PKA, ROCK1 and CDK2 kinase assays […]
(§3) Data were normalised against the AllStars negative control siRNA treated cells and values obtained from 3 – 5 biological replicates were reported as the mean ± 1 S.D.

Experiment [3] addresses T3, ROCK1 (Homo sapiens, UniProt Q13464).
T3 construct: purchased Promega
Kind of experiment: ROCK1 kinase assay (Promega). The note with it: for IC50: ± S.D. As to the method:
as §1, §2, §3

The target of experiment [4] is T4, CDK2 (Homo sapiens, UniProt P24941).
T4 construct: made in house; host or cells: E. coli
Kind of experiment: CDK2 kinase assay, Histone H1 substrate, Kinase-Glo Max. The note with it: for IC50: ± S.D. Here is the method: PKA, ROCK1 and CDK2 kinase assays
PKA and ROCK1 assays (Promega) were carried out according to the manufacturer’s protocols and CDK2 assays were carried out with Histone H1 as substrate (1 µg per 20 µl reaction) according to our Kinase-Glo Max assay. CDK2 was expressed and purified from E. coli as previously described (10). […]
as §3
For orientation: Kinase-Glo reads ATP consumption through a luciferase reaction.

Structures are written as SMILES.

What is called inhibition is the percentage by which the read-out fell short of the control. Usually IC50 stands for the concentration that gives 50% inhibition.

T1 sequence (Q96GX5 with tags, fused parts or gaps limits assumed): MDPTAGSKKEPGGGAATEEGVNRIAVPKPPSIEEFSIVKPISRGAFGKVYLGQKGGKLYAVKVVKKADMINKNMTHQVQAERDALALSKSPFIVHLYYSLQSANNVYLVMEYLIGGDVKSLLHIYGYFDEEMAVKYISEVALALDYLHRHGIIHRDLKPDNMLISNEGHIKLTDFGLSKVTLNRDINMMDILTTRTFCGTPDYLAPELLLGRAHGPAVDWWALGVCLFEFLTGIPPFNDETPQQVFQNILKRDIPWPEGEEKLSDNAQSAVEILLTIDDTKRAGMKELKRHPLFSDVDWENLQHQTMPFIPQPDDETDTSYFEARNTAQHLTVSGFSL
T3 sequence (Q13464 whole entry): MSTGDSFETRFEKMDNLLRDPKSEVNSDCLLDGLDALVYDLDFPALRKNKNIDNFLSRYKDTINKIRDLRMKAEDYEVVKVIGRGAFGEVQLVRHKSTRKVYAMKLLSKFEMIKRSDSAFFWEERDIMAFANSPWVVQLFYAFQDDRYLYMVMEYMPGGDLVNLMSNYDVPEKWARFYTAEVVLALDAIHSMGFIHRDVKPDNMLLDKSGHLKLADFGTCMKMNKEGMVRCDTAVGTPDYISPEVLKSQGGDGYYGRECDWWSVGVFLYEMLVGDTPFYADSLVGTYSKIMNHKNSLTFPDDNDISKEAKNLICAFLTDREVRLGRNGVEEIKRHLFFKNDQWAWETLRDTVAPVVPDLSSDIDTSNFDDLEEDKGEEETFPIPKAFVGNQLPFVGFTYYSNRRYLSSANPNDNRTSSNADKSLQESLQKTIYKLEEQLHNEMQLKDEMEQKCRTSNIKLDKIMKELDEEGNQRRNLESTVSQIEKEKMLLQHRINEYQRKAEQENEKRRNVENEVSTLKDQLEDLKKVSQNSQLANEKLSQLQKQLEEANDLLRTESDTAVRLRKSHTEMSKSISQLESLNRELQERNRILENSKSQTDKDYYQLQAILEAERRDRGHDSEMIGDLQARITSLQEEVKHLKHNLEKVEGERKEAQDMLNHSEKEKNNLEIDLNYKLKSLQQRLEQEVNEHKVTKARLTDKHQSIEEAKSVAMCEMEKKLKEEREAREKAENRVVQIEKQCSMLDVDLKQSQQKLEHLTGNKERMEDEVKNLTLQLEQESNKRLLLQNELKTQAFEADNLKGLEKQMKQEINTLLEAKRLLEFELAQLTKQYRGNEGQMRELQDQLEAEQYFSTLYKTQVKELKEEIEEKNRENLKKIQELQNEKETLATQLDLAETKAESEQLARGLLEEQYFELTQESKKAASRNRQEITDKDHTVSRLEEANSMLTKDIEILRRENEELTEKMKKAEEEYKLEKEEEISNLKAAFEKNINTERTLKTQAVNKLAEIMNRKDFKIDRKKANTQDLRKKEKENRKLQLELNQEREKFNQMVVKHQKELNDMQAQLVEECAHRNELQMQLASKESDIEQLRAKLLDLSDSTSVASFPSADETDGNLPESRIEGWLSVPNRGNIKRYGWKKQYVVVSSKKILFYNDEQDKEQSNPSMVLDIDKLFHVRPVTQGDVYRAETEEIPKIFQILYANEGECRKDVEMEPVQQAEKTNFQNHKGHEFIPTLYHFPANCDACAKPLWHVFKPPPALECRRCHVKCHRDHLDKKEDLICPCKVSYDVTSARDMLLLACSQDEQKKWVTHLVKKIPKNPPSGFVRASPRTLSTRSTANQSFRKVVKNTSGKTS

On to `CCN(CC)Cc1ccc(Nc2nccc(-c3cnn4ncccc34)n2)cc1` [GRI-4], for which, in experiment [1], the inhibition at 10 µM worked out at 30.1%. Besides, in experiment [1], the “Rank in inhibitor screen” value was 8. The IC50 was above 100 µM in experiment [2], 21.6 ± 5.3 µM in experiment [3] and 0.089 ± 0.003 µM in experiment [4].

On to `Clc1ccc(Nc2cccc(-c3cn[nH]c3)c2)cc1` [GKI-1, N-(4-chlorophenyl)-3-(1H-pyrazol-4-yl)aniline], for which the “selectivity for hGWL^FL over PKA” value in experiment [2] is “greater than 8 fold”. In addition, the values for the IC50 in experiment [2], in experiment [3] and in experiment [4] were above 40 µM, 11.3 ± 3.4 µM and above 100 µM, respectively. Further, in experiment [3], the “selectivity for hGWL^FL over ROCK1” value stood at 2 fold. For the same compound, in experiment [4] (concentrations up to 100 μM), the “inhibitory activity towards CDK2” value was “no observable inhibitory activity”.

For the compound `CN(C)CC#Cc1cccc(C(=O)c2cnn(-c3ccc(F)cc3)c2N)c1` [GRI-3], in experiment [1], the inhibition at 10 µM worked out at 39.6% and the “Rank in inhibitor screen” value is 3.
